Consider one compound from patent publication US7132252B2, “Methods for detecting the interaction of compounds with cytochrome P450 using optical molecular sensors” (Invitrogen Corporation, priority 1998, dated 2006).

“And” between values parts separate entries of the source, which are not always exact repeats. Equal entries are not always repeated.

One data set deals with CYP3A4 (Homo sapiens, UniProt P08684). The experiment in a line: Kinetic properties of fluorogenic substrates with CYP 3A4. It is filed as biochemical. The source says: For further understanding these terms in the context of this invention, attention is directed to FIG. 4 and the analysis of FIG. 4.
Sequence of CYP3A4 (P08684 whole entry): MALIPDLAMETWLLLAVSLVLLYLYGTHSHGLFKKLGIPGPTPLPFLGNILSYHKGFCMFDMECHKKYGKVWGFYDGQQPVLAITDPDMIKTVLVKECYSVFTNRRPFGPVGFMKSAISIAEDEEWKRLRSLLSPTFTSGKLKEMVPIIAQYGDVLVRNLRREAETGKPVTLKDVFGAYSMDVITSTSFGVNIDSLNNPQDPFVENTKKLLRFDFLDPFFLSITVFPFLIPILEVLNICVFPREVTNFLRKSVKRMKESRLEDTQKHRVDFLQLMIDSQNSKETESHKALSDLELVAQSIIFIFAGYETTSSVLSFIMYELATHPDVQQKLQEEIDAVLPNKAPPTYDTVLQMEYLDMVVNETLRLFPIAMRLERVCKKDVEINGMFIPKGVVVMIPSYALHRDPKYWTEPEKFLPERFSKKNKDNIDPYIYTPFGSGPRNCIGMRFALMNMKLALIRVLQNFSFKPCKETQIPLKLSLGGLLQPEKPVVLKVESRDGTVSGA
(§1) (respectively, MFC and MR).

The target in the next data set is CYP2C9 (Homo sapiens, UniProt P11712). Kind of data set: Kinetic properties of fluorogenic substrates with CYP 2C9. It counts as biochemical.
Sequence of CYP2C9 (P11712 whole entry): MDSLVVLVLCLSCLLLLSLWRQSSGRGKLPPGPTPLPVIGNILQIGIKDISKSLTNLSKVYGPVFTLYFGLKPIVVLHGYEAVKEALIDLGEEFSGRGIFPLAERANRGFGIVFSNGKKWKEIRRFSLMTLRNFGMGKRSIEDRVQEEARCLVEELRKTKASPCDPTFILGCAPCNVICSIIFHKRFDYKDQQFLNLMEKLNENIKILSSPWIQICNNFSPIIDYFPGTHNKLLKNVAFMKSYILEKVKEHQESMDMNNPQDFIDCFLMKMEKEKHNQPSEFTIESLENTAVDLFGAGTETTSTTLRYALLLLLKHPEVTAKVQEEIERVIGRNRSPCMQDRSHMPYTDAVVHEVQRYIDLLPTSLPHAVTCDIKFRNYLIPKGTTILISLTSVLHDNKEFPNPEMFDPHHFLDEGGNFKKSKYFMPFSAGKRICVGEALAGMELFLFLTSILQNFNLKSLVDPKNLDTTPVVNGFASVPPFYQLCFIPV
The target in data set [1] is T1, CYP2D6 (Homo sapiens, UniProt P10635). Kind of data set: Kinetic properties of fluorogenic substrates with CYP 2D6. It is filed as biochemical.
T1 sequence (P10635 whole entry): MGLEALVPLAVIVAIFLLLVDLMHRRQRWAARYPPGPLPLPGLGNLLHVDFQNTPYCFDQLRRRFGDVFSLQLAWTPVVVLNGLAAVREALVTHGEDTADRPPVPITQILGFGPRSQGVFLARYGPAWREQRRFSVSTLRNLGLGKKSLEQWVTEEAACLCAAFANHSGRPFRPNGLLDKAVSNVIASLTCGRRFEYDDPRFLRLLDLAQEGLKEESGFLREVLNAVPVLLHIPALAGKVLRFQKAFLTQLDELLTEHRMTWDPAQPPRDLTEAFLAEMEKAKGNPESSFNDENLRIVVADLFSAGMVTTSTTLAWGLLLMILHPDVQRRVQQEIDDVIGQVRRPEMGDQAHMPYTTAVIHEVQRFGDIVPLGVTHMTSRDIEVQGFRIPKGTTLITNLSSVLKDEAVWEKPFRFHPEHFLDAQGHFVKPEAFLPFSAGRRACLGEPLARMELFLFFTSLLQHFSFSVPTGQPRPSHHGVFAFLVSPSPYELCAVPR
Description: as §1

The target of data set [2] is T1, CYP2D6. Kind of data set: Fluorescence signal from enzymatic metabolism over reagent addition background, CYP2D6. It counts as biochemical. Particulars: MOBFC vs AMMC (Gentest) (FIG. 10). The protocol: The assays were performed in a 96-well plate at room temperature and at a volume of 100 μl/well. […] (See Table 11.) The enzyme was made up in the appropriate K+ phosphate buffer at 10× and 10 μl/well was-added to the appropriate wells. (See Table 11.) The plate was read at 3 minute intervals for 12 minutes to obtain a background fluorescence levels. Readings were briefly interrupted to allow for the addition of 10 μl of 10×NADP+ in K+ phosphate buffer to each well. (See Table 11.) The readings were resumed at 3 minute intervals for another 12 minutes. […] To permit quantitative comparison between sensors that were or would be metabolized to yield fluorescent products of differing optical properties, the signal intensity corresponding to each well was normalized by division with the initial signal intensity (wells containing enzyme and buffer). […] The later increase in signal, approximately four minutes after the second addition and at later time points, is believed to be due to the enzymatic conversion of the substrate to the product. […] [table]

Data set [3] is described as follows: Stability of substrate stock solution. It is filed as physicochemical. Particulars: 10 mM in acetonitrile, stored at 4° C. in the dark. The procedure:
Substrate stock solutions were stable when stored at 4° C. in the dark. 7-Hydroxy-4trifluoromethylcoumarin dye standard was prepared at 1 mM in DMSO. […] Control wells receive the appropriate inhibition controls for each isozyme. Also, inhibitors are added to wells that contain the dye standards to permit addition of substrate and enzyme to all wells of the plate. • 2. […] 30 μl/well Enzyme/Recycling System buffer was added.

Setting [4] is: turnover rate at 1.25 uM substrate, — = too low to quantify.
Where [5] appears, read: turnover rate at 10 uM substrate, — = too low to quantify.

Consider `COc1ccc(COc2ccc3c(C(F)(F)F)cc(=O)oc3c2)cc1` [MOBFC], for which the type of kinetics entry on CYP3A4, on CYP2C9 and on CYP2D6 [1] was “Michaelis-Menten” throughout. Moreover, the “v (1.25 uM)” value was 0.0214 min⁻¹ and 0.02 min⁻¹ on CYP3A4 (setting [4]); 0.02 min⁻¹ on CYP2C9 (setting [4]); 0.09 min⁻¹ at CYP2D6 [1] (setting [4]). For the same compound, the “v (10 uM)” value at CYP3A4 (setting [5]) is 0.3453 min⁻¹ and 0.35 min⁻¹; at CYP2C9 (setting [5]), 0.188 min⁻¹ and 0.19 min⁻¹; at CYP2D6 [1] (setting [5]), 0.49 min⁻¹. In addition, the kcat at CYP2C9 (— = too low to quantify) was determined as 0.005 s⁻¹. Besides, on CYP2D6 [2], the “signal to background versus prior commercially available substrate” value is on record as “superior signal to background”. Moreover, the “stability of substrate stock solutions” value in data set [3] is given as “stable”.

One may read the kcat as the number of substrate molecules converted per active site and unit of time at saturation.
